Assay results reported in patent publication US10420768B2, “Pyrrolopyrimidine derivatives as NR2B NMDA receptor antagonists” (Rugen Holdings (Cayman) Limited, priority 2014, dated 2019).

Tests used:
[1] = test system: rats; test: Haloperidol-induced catalepsy (HIC) model; type: in vivo, rat; settings: positive control 8 mg/kg
[2] = test system: rats; test: Electroconvulsive threshold (ECT) test; type: in vivo, rat
[3] = test system: mice (strain NLMN); test: Forced swim test; type: in vivo, mouse; settings: positive control 32 mg/kg IP

CC(N)Cc1ccccc1 (stereo not shown) [amphetamine]
anticataleptic activity (catalepsy score) [1]: showed the expected robust anticataleptic activity

CN1C(=O)CN=C(c2ccccc2)c2cc(Cl)ccc21 [diazepam]
anticonvulsant activity (electroconvulsive threshold) ([2]; positive control 16 mg/kg p.o.): showed the expected pro- and anticonvulsant activities

CN(C)CCCN1c2ccccc2CCc2ccccc21 [imipramine]
antidepressant activity (immobility time) [3]: showed the expected antidepressant activity

Cn1c(=O)c2[nH]cnc2n(C)c1=O [theophylline, Theophylline]
proconvulsant activity (electroconvulsive threshold) ([2]; positive control 128 mg/kg p.o.): showed the expected pro- and anticonvulsant activities
